Reference: patent US6831075B2, “Heterocyclic substituted pyrazolones” (Cephalon, Inc., priority 1999, dated 2004)

Key:
Type in all cases: biochemical
[1] = target: T1, baculovirus-expressed human trkA cytoplasmic domain (Homo sapiens, UniProt P04629); assay: trkA tyrosine kinase inhibition assay (ELISA-based); details: 1 uM compound; 40 μM ATP
T1 construct: baculovirus-expressed human trkA cytoplasmic domain; host or cells: baculovirus expression system
Method in brief: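 ELISA with PLC-γ1/GST fusion substrate coated on plate; kinase reaction in 50 mM Hepes pH 7.4, 40 μM ATP, 10 mM MnCl2, 0.1% BSA, 2% DMSO, 15 min at 37°C, started by enzyme. Phosphotyrosine detected by anti-phosphotyrosine and alkaline phosphatase secondary antibody with amplified read-out; inhibition fitted by variable-slope sigmoidal dose-response.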

baculoviral GST-MLK1KD = target: T2, baculoviral GST-MLK1KD (Homo sapiens, UniProt P80192); assay: Mixed Lineage Kinase-1 inhibition assay (Millipore Multiscreen TCA in-plate, 32P); details: for MLK-1 Kinase % inhibition @ 1 uM: 1 uM compound, 60 μM ATP
T2 construct: 1 μg/ml of baculoviral GST-MLK1KD; GST (N); host or cells: baculovirus expression system
T2 sequence (P80192 144-412 limits assumed): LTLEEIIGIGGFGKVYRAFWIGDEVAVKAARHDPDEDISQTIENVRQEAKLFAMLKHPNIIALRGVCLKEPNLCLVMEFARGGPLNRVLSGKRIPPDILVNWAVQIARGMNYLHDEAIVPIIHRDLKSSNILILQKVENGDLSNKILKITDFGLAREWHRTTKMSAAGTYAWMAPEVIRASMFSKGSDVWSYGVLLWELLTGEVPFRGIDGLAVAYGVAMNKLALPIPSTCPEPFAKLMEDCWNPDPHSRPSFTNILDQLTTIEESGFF
Method in brief: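 Radiometric assay: 1 μg/ml kinase with 500 μg/ml myelin basic protein, 60 μM ATP plus [γ-32P]ATP, pH 7.0 Hepes buffer, 10 mM MgCl2, 2% DMSO, test compound at 1 μM; 15 min at 37 °C. TCA-precipitated protein counted by scintillation.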

[2] = target: T3, recombinant human baculovirus-expressed VEGFR1 cytoplasmic domain (Homo sapiens, UniProt P17948); assay: VEGFR1 kinase inhibition assay (ELISA-based, time-resolved fluorescence); details: 1 uM compound, 30 μM ATP
T3 construct: recombinant human baculovirus-expressed VEGFR1 cytoplasmic domain; host or cells: baculovirus expression system
T3 sequence (P17948 781-1338 limits assumed): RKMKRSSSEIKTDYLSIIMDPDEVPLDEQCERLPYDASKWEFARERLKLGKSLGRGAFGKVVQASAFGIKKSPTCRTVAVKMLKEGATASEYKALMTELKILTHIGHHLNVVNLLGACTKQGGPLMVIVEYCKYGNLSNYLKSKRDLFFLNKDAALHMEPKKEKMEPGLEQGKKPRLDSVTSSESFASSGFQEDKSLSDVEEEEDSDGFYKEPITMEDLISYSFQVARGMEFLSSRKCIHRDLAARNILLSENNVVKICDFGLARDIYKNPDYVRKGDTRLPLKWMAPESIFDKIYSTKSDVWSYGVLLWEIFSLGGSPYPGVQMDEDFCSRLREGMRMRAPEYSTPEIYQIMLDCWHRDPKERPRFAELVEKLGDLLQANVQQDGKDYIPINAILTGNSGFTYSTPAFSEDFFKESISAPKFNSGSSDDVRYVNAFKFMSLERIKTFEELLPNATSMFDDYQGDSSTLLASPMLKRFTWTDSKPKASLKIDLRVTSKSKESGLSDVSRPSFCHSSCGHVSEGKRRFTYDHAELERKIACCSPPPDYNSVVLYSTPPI
Method in brief: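 Prephosphorylated baculovirus-expressed VEGFR1 cytoplasmic domain (300 ng/ml) phosphorylates plate-bound PLC-γ/GST with 30 μM ATP, 10 mM MnCl2, pH 7.4, 15 min at 37 °C. Compounds tested at 1 μM. Phosphotyrosine detected with europium anti-phosphotyrosine antibody by time-resolved fluorescence.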

[3] = target: T4, recombinant human baculovirus-expressed FGFR1 cytoplasmic domain (Homo sapiens, UniProt P11362); assay: FGFR1 kinase inhibition assay (ELISA-based, time-resolved fluorescence); details: 1 uM compound; 20 μM ATP
T4 construct: recombinant human baculovirus-expressed FGFR1 cytoplasmic domain; host or cells: baculovirus expression system
T4 sequence (P11362 398-822 limits assumed): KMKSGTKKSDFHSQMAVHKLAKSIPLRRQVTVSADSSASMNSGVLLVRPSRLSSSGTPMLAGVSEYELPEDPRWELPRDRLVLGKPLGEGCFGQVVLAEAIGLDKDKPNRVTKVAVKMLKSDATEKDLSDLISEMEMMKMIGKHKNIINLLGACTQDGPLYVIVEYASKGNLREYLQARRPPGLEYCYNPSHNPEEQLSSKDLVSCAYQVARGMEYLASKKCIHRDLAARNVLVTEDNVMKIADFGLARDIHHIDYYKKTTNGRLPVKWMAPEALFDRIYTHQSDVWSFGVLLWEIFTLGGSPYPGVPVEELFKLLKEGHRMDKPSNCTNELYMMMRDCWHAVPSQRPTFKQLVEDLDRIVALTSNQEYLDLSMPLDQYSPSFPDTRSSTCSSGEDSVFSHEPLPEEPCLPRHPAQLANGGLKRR
Method in brief: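 Prephosphorylated baculovirus FGFR1 cytoplasmic domain (15 ng/ml) phosphorylated plate-coated PLC-γ/GST with 20 μM ATP, 10 mM MnCl2, HEPES pH 7.4, 2% DMSO, 15 min at 37 °C. Compounds tested at 1 μM. Phosphotyrosine detected with europium-labelled antibody by time-resolved fluorescence.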

T1 sequence (P04629 440-796 limits assumed): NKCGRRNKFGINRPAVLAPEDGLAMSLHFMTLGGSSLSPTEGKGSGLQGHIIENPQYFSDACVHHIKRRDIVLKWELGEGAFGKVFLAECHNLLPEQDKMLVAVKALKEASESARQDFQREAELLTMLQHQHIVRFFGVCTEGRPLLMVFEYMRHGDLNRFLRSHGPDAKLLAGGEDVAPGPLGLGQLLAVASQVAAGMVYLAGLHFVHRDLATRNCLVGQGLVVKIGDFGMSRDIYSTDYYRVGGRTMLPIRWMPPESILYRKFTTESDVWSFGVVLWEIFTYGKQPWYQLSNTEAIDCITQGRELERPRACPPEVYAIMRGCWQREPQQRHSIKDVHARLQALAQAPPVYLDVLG

O=C1NN=C(c2ccco2)C1=Cc1cn(Cc2ccccc2)c2ccccc12 [Compound 69]
trkA % inhibition @ 1 uM [1]: 35%
MLK-1 Kinase % inhibition @ 1 uM (baculoviral GST-MLK1KD): 21%
VEGFR-1 kinase % inhibition @ 1 uM [2]: 5%
FGFR1 % inhibition @ 1 uM [3]: 30%

O=C1NN=C(c2nccs2)C1=Cc1cn(Cc2ccccc2)c2ccccc12 [Compound 70]
trkA % inhibition @ 1 uM [1]: 32%
MLK-1 Kinase % inhibition @ 1 uM (baculoviral GST-MLK1KD): 21%
VEGFR-1 kinase % inhibition @ 1 uM [2]: 1%
FGFR1 % inhibition @ 1 uM [3]: 21%

O=C1NN=C(c2ccco2)C1=Cc1cn(CCOCc2ccccc2)c2ccccc12 [Compound 71]
trkA % inhibition @ 1 uM [1]: 15%
MLK-1 Kinase % inhibition @ 1 uM (baculoviral GST-MLK1KD): 9%
VEGFR-1 kinase % inhibition @ 1 uM [2]: 12%
FGFR1 % inhibition @ 1 uM [3]: 26%

O=C1NN=C(c2nccs2)C1=Cc1cn(CCOCc2ccccc2)c2ccccc12 [Compound 72]
trkA % inhibition @ 1 uM [1]: 38%
MLK-1 Kinase % inhibition @ 1 uM (baculoviral GST-MLK1KD): 14%
VEGFR-1 kinase % inhibition @ 1 uM [2]: 12%
FGFR1 % inhibition @ 1 uM [3]: 29%

CC(C)Cn1cc(C=C2C(=O)NN=C2c2nccs2)c2ccccc21 [Compound 73]
trkA % inhibition @ 1 uM [1]: 8%
MLK-1 Kinase % inhibition @ 1 uM (baculoviral GST-MLK1KD): −1%
VEGFR-1 kinase % inhibition @ 1 uM [2]: 12%
FGFR1 % inhibition @ 1 uM [3]: 19%

Cc1cc(C)c(C=C2C(=O)NN=C2c2cnccn2)[nH]1 [Compound 74, 4-[(3,5-dimethylpyrrol-2-yl)methylene]-3-pyrazin-2-yl-2-pyrazolin-5-one]
inhibition at 1 µM [1]: 53%
inhibition at 1 µM (baculoviral GST-MLK1KD; read-out: MLK-1 Kinase % inhibition @ 1 uM): 44%
inhibition at 1 µM ([2]; read-out: VEGFR-1 kinase % inhibition @ 1 uM): 74%
inhibition at 1 µM [3]: 48%

O=C1NN=C(c2cccs2)C1=Cc1cn(Cc2ccccc2)c2ccccc12 [Compound 75]
trkA % inhibition @ 1 uM [1]: 23%
MLK-1 Kinase % inhibition @ 1 uM (baculoviral GST-MLK1KD): 5%
VEGFR-1 kinase % inhibition @ 1 uM [2]: 5%
FGFR1 % inhibition @ 1 uM [3]: 26%
